Sander's compilation of Henry's law constants

What was measured:
[1] = Henry solubility constant Hcp at 291 K (mol/(m3 Pa)); settings: reference: Treves et al. (2000)
[2] = Henry solubility constant Hcp at 290 K (mol/(m3 Pa)); settings: reference: Thomas et al. (2006)
[3] = Henry solubility constant Hcp at 298.15 K (mol/(m3 Pa))
[4] = Henry solubility constant Hcp at 294 K (mol/(m3 Pa))
[5] = Henry solubility constant Hcp at 278 K (mol/(m3 Pa)); settings: reference: Sauer (1997)
[6] = Henry solubility constant Hcp at 288 K (mol/(m3 Pa)); settings: reference: Jones (1911)
[7] = Henry solubility constant Hcp at 293 K (mol/(m3 Pa))
[8] = Henry solubility constant Hcp at 296 K (mol/(m3 Pa))
[9] = Henry solubility constant Hcp at 295 K (mol/(m3 Pa)); settings: reference: de Wolf and Lieder (1998)
[10] = Henry solubility constant Hcp at 303 K (mol/(m3 Pa)); settings: reference: Saylor et al. (1938)
[11] = reference: Murphy et al. (1983a)
[12] = reference: O’Sullivan et al. (1996)

Q: Which “Henry solubility constant Hcp at 291 K” value [1] does the source give for `CCC(CO)O[N+](=O)[O-]` (configuration not stated) [2-nitrooxy-1-butanol] here?
A: Its value is 88.

Q: For `Cl/C=C\CCl` [cis-1,3-dichloropropene], which “Henry solubility constant Hcp at 290 K” value [2] is on record?
A: Its value is 0.01.

Q: And the “Henry solubility constant Hcp” value ([3]; reference: Leistra (1970))?
A: Its value is 0.005.

Q: For `O=[N+]([O-])OCCCCO` [4-nitrooxy-1-butanol], which “Henry solubility constant Hcp at 291 K” value [1] is on record?
A: The value was 290.

Q: With `Clc1cc(Cl)c(-c2ccc(Cl)c(Cl)c2Cl)cc1Cl` [2,2',3,4,4',5'-hexachlorobiphenyl] as the compound, how does the “Henry solubility constant Hcp at 294 K” value ([4]; reference: Brownawell (1986)) read?
A: The value was 0.14.

Q: And the “Henry solubility constant Hcp” value [3, 11]?
A: The value was 0.021.

Q: Which “Henry solubility constant Hcp at 294 K” value ([4]; reference: Brownawell (1986)) does the source give for `Clc1ccc(-c2ccccc2Cl)cc1` [2,4'-dichlorobiphenyl] here?
A: Its value is 0.057.

Q: And the “Henry solubility constant Hcp” value ([3]; reference: Charles and Destaillats (2005))?
A: Its value is 0.023.

Q: And the “Henry solubility constant Hcp” value [3, 11]?
A: Its value is 0.045.

Q: For `CCOO` [ethyl hydroperoxide], which “Henry solubility constant Hcp at 278 K” value [5] is on record?
A: Its value is 11.

Q: And the “Henry solubility constant Hcp” value [3, 12]?
A: Its value is 3.3.

Q: Which “Henry solubility constant Hcp at 288 K” value [6] does the source give for `BrBr` [bromine (molecular)] here?
A: Its value is 0.014.

Q: And the “Henry solubility constant Hcp at 293 K” value ([7]; reference: Jenkins and King (1965))?
A: The value was 0.0096.

Q: What about the “Henry solubility constant Hcp” value ([3]; reference: Hill et al. (1968)) of the same compound?
A: The value was 0.0068.

Q: And the “Henry solubility constant Hcp” value ([3]; reference: Kelley and Tartar (1956))?
A: Its value is 0.007.

Q: What about the “Henry solubility constant Hcp” value ([3]; reference: Winkler (1899)) of the same compound?
A: Its value is 0.0079.

Q: And the “Henry solubility constant Hcp” value ([3]; reference: Winkler (1906))?
A: The value was 0.0078.

Q: With `CC(O)CCO[N+](=O)[O-]` (configuration not stated) [4-nitrooxy-2-butanol] as the compound, how does the “Henry solubility constant Hcp at 291 K” value [1] read?
A: The value was 130.

Q: With `CI` [iodomethane] as the compound, how does the “Henry solubility constant Hcp at 294 K” value ([4]; reference: Gan and Yates (1996)) read?
A: Its value is 0.0019.

Q: What about the “Henry solubility constant Hcp” value ([3]; reference: Balls (1980)) of the same compound?
A: The value was 0.002.

Q: What about the “Henry solubility constant Hcp” value ([3]; reference: Elliott and Rowland (1993)) of the same compound?
A: The value was 0.002.

Q: And the “Henry solubility constant Hcp” value ([3]; reference: Glew and Moelwyn-Hughes (1953))?
A: The value was 0.0019.

Q: What about the “Henry solubility constant Hcp” value ([3]; reference: Hunter-Smith et al. (1983)) of the same compound?
A: Its value is 0.0019.

Q: And the “Henry solubility constant Hcp” value ([3]; reference: Swain and Thornton (1962))?
A: The value was 0.0018.

Q: For `c1ccccc1` [benzene], which “Henry solubility constant Hcp at 296 K” value ([8]; reference: Anderson (1992)) is on record?
A: The value was 0.0018.

Q: What about the “Henry solubility constant Hcp at 296 K” value ([8]; reference: Miller and Stuart (2000)) of the same compound?
A: Its value is 0.0018.

Q: What about the “Henry solubility constant Hcp at 295 K” value [9] of the same compound?
A: Its value is 0.0022.

Q: And the “Henry solubility constant Hcp at 303 K” value [10]?
A: The value was 0.0015.

Q: And the “Henry solubility constant Hcp at 293 K” value ([7]; reference: Vitenberg et al. (1974))?
A: The value was 0.0012.

Q: What about the “Henry solubility constant Hcp at 293 K” value ([7]; reference: Yu (1992)) of the same compound?
A: Its value is 0.0019.

Q: What about the “Henry solubility constant Hcp at 293 K” value ([7]; reference: Yurteri et al. (1987)) of the same compound?
A: The value was 0.0013.

Q: What about the “Henry solubility constant Hcp” value ([3]; reference: Alaee et al. (1996)) of the same compound?
A: The value was 0.0018.

Q: What about the “Henry solubility constant Hcp” value ([3]; reference: Allen et al. (1998)) of the same compound?
A: Its value is 0.0018.

Q: What about the “Henry solubility constant Hcp” value ([3]; reference: Bakierowska and Trzeszczyński (2003)) of the same compound?
A: The value was 0.0018.

Q: What about the “Henry solubility constant Hcp” value ([3]; reference: Bierwagen and Keller (2001)) of the same compound?
A: The value was 0.0019.

Q: And the “Henry solubility constant Hcp” value ([3]; reference: Bissonette et al. (1990))?
A: The value was 0.0016.

Q: And the “Henry solubility constant Hcp” value ([3]; reference: Brown and Wasik (1974))?
A: The value was 0.0017.

Q: And the “Henry solubility constant Hcp” value ([3]; reference: Cooling et al. (1992))?
A: Its value is 0.0017.

Q: What about the “Henry solubility constant Hcp” value ([3]; reference: Ervin et al. (1980)) of the same compound?
A: The value was 0.0012.

Q: And the “Henry solubility constant Hcp” value ([3]; reference: Ettre et al. (1993))?
A: The value was 0.0018.

Q: What about the “Henry solubility constant Hcp” value ([3]; reference: Green and Frank (1979)) of the same compound?
A: The value was 0.0018.

Q: And the “Henry solubility constant Hcp” value ([3]; reference: Görgényi et al. (2002))?
A: The value was 0.0017.

Q: And the “Henry solubility constant Hcp” value ([3]; reference: Hartkopf and Karger (1973))?
A: Its value is 0.0021.

Q: And the “Henry solubility constant Hcp” value ([3]; reference: Keeley et al. (1988))?
A: Its value is 0.0017.

Q: What about the “Henry solubility constant Hcp” value ([3]; reference: Khalfaoui and Newsham (1994b)) of the same compound?
A: Its value is 0.0017.

Q: And the “Henry solubility constant Hcp” value ([3]; reference: Lau et al. (2010))?
A: The value was 0.0014.

Q: What about the “Henry solubility constant Hcp” value ([3]; reference: Lei et al. (2004)) of the same compound?
A: Its value is 0.0014.

Q: And the “Henry solubility constant Hcp” value ([3]; reference: Li et al. (2008))?
A: Its value is 0.0018.

Q: What about the “Henry solubility constant Hcp” value ([3]; reference: Lodge and Danso (2007)) of the same compound?
A: Its value is 0.0025.

Q: And the “Henry solubility constant Hcp” value ([3]; reference: Mackay et al. (1979))?
A: The value was 0.0018.

Q: What about the “Henry solubility constant Hcp” value ([3]; reference: Nielsen et al. (1994)) of the same compound?
A: The value was 0.002.

Q: And the “Henry solubility constant Hcp” value ([3]; reference: Park et al. (1997))?
A: The value was 0.0014.

Q: And the “Henry solubility constant Hcp” value ([3]; reference: Peng and Wan (1997))?
A: Its value is 0.0019.

Q: What about the “Henry solubility constant Hcp” value ([3]; reference: Peng and Wan (1998)) of the same compound?
A: The value was 0.0022.

Q: What about the “Henry solubility constant Hcp” value ([3]; reference: Perlinger et al. (1993)) of the same compound?
A: The value was 0.0017.

Q: And the “Henry solubility constant Hcp” value ([3]; reference: Robbins et al. (1993))?
A: Its value is 0.0018.

Q: And the “Henry solubility constant Hcp” value ([3]; reference: Sanemasa et al. (1981))?
A: Its value is 0.0017.

Q: And the “Henry solubility constant Hcp” value ([3]; reference: Sieg et al. (2009))?
A: The value was 0.0017.

Q: What about the “Henry solubility constant Hcp” value ([3]; reference: Tsibul’skii et al. (1979)) of the same compound?
A: Its value is 0.0016.

Q: And the “Henry solubility constant Hcp” value ([3]; reference: Tsonopoulos and Wilson (1983))?
A: Its value is 0.0018.

Q: And the “Henry solubility constant Hcp” value ([3]; reference: Turner et al. (1996))?
A: Its value is 0.0016.

Q: What about the “Henry solubility constant Hcp” value ([3]; reference: Vitenberg et al. (1975)) of the same compound?
A: Its value is 0.0018.

Q: What about the “Henry solubility constant Hcp” value ([3]; reference: Warner et al. (1980)) of the same compound?
A: Its value is 0.0018.

Q: What about the “Henry solubility constant Hcp” value ([3]; reference: Wasik and Tsang (1970)) of the same compound?
A: The value was 0.0016.

Q: With `CC(=O)OO` [ethanoic peroxyacid] as the compound, how does the “Henry solubility constant Hcp at 278 K” value [5] read?
A: The value was 24.

Q: What about the “Henry solubility constant Hcp” value ([3]; reference: Lind and Kok (1994)) of the same compound?
A: Its value is 6.5.

Q: What about the “Henry solubility constant Hcp” value [3, 12] of the same compound?
A: Its value is 8.3.
